Measurements as given in patent publication US20150010928A1, “MEANS AND METHODS FOR ASSESSING AN ENDOCRINE DISEASE OR DISORDER” (priority 2012, published 2015).
Marks after values point to notes of the source that are not given here.

Tested on: male rats
Assay: Plasma metabolite profiling (GC-MS, LC-MS, SPE-LC-MS) in male rats dosed once daily over 28 days (OECD 407)
Format: in vivo, rat
Details: high dose; for Alanine, ratio versus control / Androstenedione, ratio versus control / Cholesterol, ratio versus control / Glycine, ratio versus control / Heptadecanoic acid (C17:0), ratio versus control / Testosterone, ratio versus control / Threonine, ratio versus control / Uric acid, ratio versus control / alpha-Tocopherol, ratio versus control: male rats, plasma
Method: Each dose group in the studies consisted of five rats per sex. Additional groups of each 5 male and female animals served as controls. […] All animals of the animal population were kept under the same constant temperature (20-24±3° C.) and the same constant humidity (30-70%). The animals of the animal population were fed ad libitum. The food to be used was essentially free of chemical or microbial contaminants. Drinking water was also offered ad libitum. Accordingly, the water was free of chemical and microbial contaminants as laid down in the European Drinking Water Directive 98/83/EG. The illumination period was 12 hours light followed by 12 hours darkness (12 hours light, from 6:00 to 18:00, and 12 hours darkness, from 18:00 to 6:00). […] The test substances (compounds) in the Tables 1 to 17 below were dosed and administered as described in the Table 18.
In the morning of day 7, 14, and 28, blood was taken from the retroorbital venous plexus from fasted anaesthetized animals. From each animal, 1 ml of blood was collected with EDTA as anticoagulant. The samples were centrifuged for generation of plasma. All plasma samples were covered with a N2 atmosphere and then stored at −80° C. until analysis.
For mass spectrometry-based metabolite profiling analyses plasma samples were extracted and a polar and a non-polar (lipid) fraction was obtained. For GC-MS analysis, the non-polar fraction was treated with methanol under acidic conditions to yield the fatty acid methyl esters. Both fractions were further derivatised with O-methyl-hydroxyamine hydrochloride and pyridine to convert Oxogroups to O-methyloximes and subsequently with a silylating agent before analysis. In LC-MS analysis, both fractions were reconstituted in appropriate solvent mixtures. HPLC was performed by gradient elution on reversed phase separation columns. Mass spectrometric detection which allows target and high sensitivity MRM (Multiple Reaction Monitoring) profiling in parallel to a full screen analysis was applied as described in WO2003073464.
Steroids and their metabolites were measured by online SPE-LC-MS (Solid phase extraction-LC-MS).
Following comprehensive analytical validation steps, the data for each analyte were normalized against data from pool samples. These samples were run in parallel through the whole process to account for process variability. The significance of treatment group values specific for sex, treatmentduration and metabolite was determined by comparing means of the treated groups to the means of the respective untreated control groups using WELCH-test and quantified with treatment ratios versus control and p-values.
The identification of the most important biomarkers per toxicity pattern was done by a ranking of the analytes in the tables below. Therefore the metabolic changes in reference treatments of a given pattern (shown in the table) were compared with changes of the same metabolite in other unrelated treatments. […] The maximum absolute value of the respective TVALUE was taken to indicate the most important metabolite for the pattern.

## C#C[C@]1(O)CC[C@H]2[C@@H]3CCc4cc(O)ccc4[C@H]3CC[C@@]21C [17-alpha-Ethynylestradiol]
m7, Table 14b
  Cholesterol: 0.19
  Choline plasmalogen No 02: 0.28
  Lignoceric acid (C24:0): 0.2
  Sphingomyelin (d18:1, C16:0): 0.2
  Sphingomyelin (d18:2, C16:0): 0.19
  erythro-Sphingosine (d18:1): 0.09
m7, Table 12d
  3,4-Dihydroxyphenylacetic acid (DOPAC): 1.01
  Choline plasmalogen No 02: 0.28 *
  Choline plasmalogen No 03: 0.41 *
  Coenzyme Q10: 0.16 *
  Elaidic acid (C18:trans[9]1): 0.54 *
  Glycerol phosphate, lipid fraction: 0.22 *
  Glycerol, polar fraction: 0.68 *
  Lysophosphatidylcholine (C17:0): 0.38 *
  Lysophosphatidylcholine (C18:0): 0.77 *
  Lysophosphatidylcholine (C20:4): 0.78 *
  Lysophosphatidylethanolamine (C22:0): 0.28 *
  Phosphatidylcholine (C18:0, C20:3): 0.21 *
  Phosphatidylcholine No 04: 0.17 *
  Sphingomyelin (d18:1, C16:0): 0.32 *
  Sphingomyelin (d18:2, C16:0): 0.19 *
  Sphingomyelin (d18:2,C18:0): 0.24 *
  Threonic acid: 0.47 *
  Tyrosine: 1.09
  beta-Sitosterol: 0.3 *
  myo-Inositol, lipid fraction: 0.22 *
m14, Table 14b
  Cholesterol: 0.24
  Choline plasmalogen No 02: 0.46
  Lignoceric acid (C24:0): 0.21
  Sphingomyelin (d18:1, C16:0): 0.37
  Sphingomyelin (d18:2, C16:0): 0.24
  erythro-Sphingosine (d18:1): 0.13
m14, Table 12d
  3,4-Dihydroxyphenylacetic acid (DOPAC): 0.58 *
  Choline plasmalogen No 02: 0.46 *
  Choline plasmalogen No 03: 0.43 *
  Coenzyme Q10: 0.31 *
  Elaidic acid (C18:trans[9]1): 0.63 *
  Glycerol phosphate, lipid fraction: 0.31 *
  Glycerol, polar fraction: 0.84
  Lysophosphatidylcholine (C17:0): 0.58 *
  Lysophosphatidylcholine (C18:0): 0.84 *
  Lysophosphatidylcholine (C20:4): 0.83 *
  Lysophosphatidylethanolamine (C22:0): 0.45 *
  Phosphatidylcholine (C18:0, C20:3): 0.47 *
  Phosphatidylcholine No 04: 0.42 *
  Sphingomyelin (d18:1, C16:0): 0.4 *
  Sphingomyelin (d18:2, C16:0): 0.24 *
  Sphingomyelin (d18:2,C18:0): 0.18 *
  Threonic acid: 0.52 *
  Tyrosine: 0.96
  beta-Sitosterol: 0.38 *
  myo-Inositol, lipid fraction: 0.29 *
m28, Table 14b
  Cholesterol: 0.39
  Choline plasmalogen No 02: 0.55
  Lignoceric acid (C24:0): 0.43
  Sphingomyelin (d18:1, C16:0): 0.44
  Sphingomyelin (d18:2, C16:0): 0.34
  erythro-Sphingosine (d18:1): 0.24
m28, Table 12d
  3,4-Dihydroxyphenylacetic acid (DOPAC): 0.96
  Choline plasmalogen No 02: 0.55 *
  Choline plasmalogen No 03: 0.48 *
  Coenzyme Q10: 0.37 *
  Elaidic acid (C18:trans[9]1): 0.48 *
  Glycerol phosphate, lipid fraction: 0.29 *
  Glycerol, polar fraction: 0.63 *
  Lysophosphatidylcholine (C17:0): 0.67 *
  Lysophosphatidylcholine (C18:0): 0.89 *
  Lysophosphatidylcholine (C20:4): 0.88 *
  Lysophosphatidylethanolamine (C22:0): 0.54 *
  Phosphatidylcholine (C18:0, C20:3): 0.79 *
  Phosphatidylcholine No 04: 0.64 *
  Sphingomyelin (d18:1, C16:0): 0.65 *
  Sphingomyelin (d18:2, C16:0): 0.34 *
  Sphingomyelin (d18:2,C18:0): 0.41 *
  Threonic acid: 0.54 *
  Tyrosine: 0.83 *
  beta-Sitosterol: 0.7 *
  myo-Inositol, lipid fraction: 0.53 *

## CCNC(=O)[C@@H]1CCCN1C(=O)[C@H](CCCNC(=N)N)NC(=O)[C@H](CC(C)C)NC(=O)[C@@H](COC(C)(C)C)NC(=O)[C@H](Cc1ccc(O)cc1)NC(=O)[C@H](CO)NC(=O)[C@H](Cc1c[nH]c2ccccc12)NC(=O)[C@H](Cc1cnc[nH]1)NC(=O)[C@@H]1CCC(=O)N1 [Buserelin acetate a.c., Buserelin acetate]
Day 7
  Alanine, ratio versus control: 0.67 *
  Androstenedione, ratio versus control: 0.17 *
  Cholesterol, ratio versus control: 0.9 *
  Glycine, ratio versus control: 0.83 *
  Heptadecanoic acid (C17:0), ratio versus control: 0.81 *
  Testosterone, ratio versus control: 0.11 *
  Threonine, ratio versus control: 1.01 *
  Uric acid, ratio versus control: 0.59 *
  alpha-Tocopherol, ratio versus control: 0.88 *
Day 14
  Alanine, ratio versus control: 0.74 *
  Androstenedione, ratio versus control: 0.5 *
  Cholesterol, ratio versus control: 0.84 *
  Glycine, ratio versus control: 0.91^
  Heptadecanoic acid (C17:0), ratio versus control: 0.94 *
  Testosterone, ratio versus control: 0.19 *
  Threonine, ratio versus control: 0.92 *
  Uric acid, ratio versus control: 076 *
  alpha-Tocopherol, ratio versus control: 0.93 *
Day 28
  Alanine, ratio versus control: 0.78^
  Androstenedione, ratio versus control: 0.35 *
  Cholesterol, ratio versus control: 0.91^
  Glycine, ratio versus control: 0.91 *
  Heptadecanoic acid (C17:0), ratio versus control: 0.91 *
  Testosterone, ratio versus control: 0.08 *
  Threonine, ratio versus control: 1.01^
  Uric acid, ratio versus control: 0.85 *
  alpha-Tocopherol, ratio versus control: 1.03^
